In brackets after ≈: the same amount, converted by molar mass.

Assay type in all cases: functional
The test system of experiment [1] is Aphis fabae. The experiment is described as follows: Insecticidal activity against Aphis fabae (black bean aphid) infested soybean tender shoots at 0.25 mg/L measured 48 hr post compound dose by modified FAO dip method.
For experiment [2], the system named is Aphis fabae. The experiment is described as follows: Insecticidal activity against Aphis fabae (black bean aphid) infested soybean tender shoots at 1 mg/L measured 48 hr post compound dose by modified FAO dip method.
The next experiment deals with Tetranychus cinnabarinus. As to the kind of experiment: Insecticidal activity against Tetranychus cinnabarinus (carmine spider mite) […] assessed as larvicidal activity at 0.006 mg/L after 48 hr.
Experiment [3] deals with Mythimna separata. As to the kind of experiment: Insecticidal activity against Mythimna separata (Oriental armyworm) fourth-instar larvae reared compound pre-treated corn leaves assessed as insect mortality at 0.5 mg/L measured 2 days post compound dose.
The test system of experiment [4] is Aphis fabae. As to the kind of experiment: Insecticidal activity against Aphis fabae (black bean aphid) infested soybean tender shoots at 0.5 mg/L measured 48 hr post compound dose by modified FAO dip method.
The test system of experiment [5] is Aphis fabae. As to the kind of experiment: Insecticidal activity against Aphis fabae (black bean aphid infested soybean tender shoots measured 48 hr post compound dose by modified FAO dip method.
In experiment [6] the test system is Aphis fabae. The experiment is described as follows: Insecticidal activity against Aphis fabae (black bean aphid) infested soybean tender shoots at 2 mg/L measured 48 hr post compound dose by modified FAO dip method.
The test system of experiment [7] is Aphis fabae. As to the kind of experiment: Insecticidal activity against Aphis fabae (black bean aphid) infested soybean tender shoots at 0.0625 mg/L measured 48 hr post compound dose by modified FAO dip method.
Experiment [8] relates to Aphis fabae. The experiment is described as follows: Insecticidal activity against Aphis fabae (black bean aphid) infested soybean tender shoots at 0.125 mg/L measured 48 hr post compound dose by modified FAO dip method.
Experiment [9] deals with Mythimna separata. The experiment is described as follows: Insecticidal activity against fourth-instar larvae of Mythimna separata (Oriental armyworm) reared on compound pre-treated corn leaves assessed as insect mortality at 0.125 mg/L measured 2 days post compound dose.
The test system of experiment [10] is Mythimna separata. The experiment is described as follows: Insecticidal activity against Mythimna separata (Oriental armyworm) fourth-instar larvae reared compound pre-treated corn leaves assessed as insect mortality measured 2 days post compound dose.
The subject of experiment [11] is Mythimna separata. As to the kind of experiment: Insecticidal activity against Mythimna separata (Oriental armyworm) fourth-instar larvae reared compound pre-treated corn leaves assessed as insect mortality at 1 mg/L measured 2 days post compound dose.
Experiment [12] concerns Mythimna separata. The experiment is described as follows: Insecticidal activity against fourth-instar larvae of Mythimna separata (Oriental armyworm) reared on compound pre-treated corn leaves assessed as insect mortality at 0.03125 mg/L measured 2 days post compound dose.
Experiment [13] deals with Mythimna separata. As to the kind of experiment: Insecticidal activity against fourth-instar larvae of Mythimna separata (Oriental armyworm) reared on compound pre-treated corn leaves assessed as insect mortality at 0.0625 mg/L measured 2 days post compound dose.
Experiment [14] concerns Mythimna separata. As to the kind of experiment: Insecticidal activity against Mythimna separata (Oriental armyworm) fourth-instar larvae reared compound pre-treated corn leaves assessed as insect mortality at 0.25 mg/L measured 2 days post compound dose.
The test system of experiment [15] is Aphis fabae. The experiment is described as follows: Insecticidal activity against bean Aphis fabae (black bean aphid) infested soybean tender shoots at 0.03125 mg/L measured 48 hr post compound dose by modified FAO dip method.
For experiment [16], the system named is Aphis fabae. As to the kind of experiment: Insecticidal activity against Aphis fabae (black bean aphid) infested soybean tender shoots at 10 mg/L measured 48 hr post compound dose by modified FAO dip method.
The subject of experiment [17] is Mythimna separata. The experiment is described as follows: Insecticidal activity against Mythimna separata (Oriental armyworm) fourth-instar larvae reared compound pre-treated corn leaves assessed as insect mortality at 10 mg/L measured 2 days post compound dose.

As usually defined, the mortality is the share of the test organisms that died. The term LC50 denotes the concentration that kills 50% of the test population. Regarding IVERMECTIN, the mortality with Aphis fabae [1] was 74.1%; in the experiment with Aphis fabae [2] it was 93.5%; with Tetranychus cinnabarinus, 57.9%; in the experiment on Mythimna separata [3] it was 90.9%; in the experiment with Aphis fabae [4], 89.1%; with Aphis fabae [6], 100%. Besides, the mortality with Aphis fabae [7] amounted to 53.6%; in the experiment on Aphis fabae [8] it was 66.3%; in the experiment on Mythimna separata [9] it was 29.1%; in the experiment with Mythimna separata [11], 100%; with Mythimna separata [12], 0%; in the experiment with Mythimna separata [13], 6.4%. The mortality in the experiment with Mythimna separata [14] came to 66.7%. Also, the LC50 in the experiment with Aphis fabae [5] was found to be 0.06 µg/mL; in the experiment on Mythimna separata [10] it was 0.19 µg/mL. In the experiment with Aphis fabae [5], this compound displayed an LC90 of 0.646 µg/mL.

Regarding `CCC(C)[C@H]1O[C@]2(CC[C@@H]1C)C[C@@H]1C[C@@H](C/C=C(\C)[C@@H](O[C@H]3C[C@H](OC)[C@@H](OC(=O)/C(=N\OC)c4ccccc4)[C@H](C)O3)[C@@H](C)/C=C/C=C3\CO[C@@H]4[C@H](O)C(C)=C[C@@H](C(=O)O1)[C@]34O)O2` (stereo partly drawn), the results for the mortality at 0.25 µg/mL with Aphis fabae [1] and with Mythimna separata [14] were 34.2% and 30.2%, respectively. The mortality at 1 µg/mL with Aphis fabae [2] and with Mythimna separata [11] was 100% in each case. In addition, the mortality at 0.006 µg/mL with Tetranychus cinnabarinus was found to be 38.7%. Further, the mortality at 0.5 µg/mL was determined as 80% in the experiment with Mythimna separata [3] and 70% in the experiment with Aphis fabae [4]. For the same compound, the LC50 is 0.12 µg/mL (≈ 0.135 µM) in the experiment on Aphis fabae [5] (Aphis fabae, 48 h) and 0.35 µg/mL (≈ 0.392 µM) in the experiment on Mythimna separata [10]. Besides, the mortality at 0.0625 µg/mL in the experiment on Aphis fabae [7] and with Mythimna separata [13] was 0% in each case. Moreover, the mortality at 0.125 µg/mL in the experiment on Aphis fabae [8] was 3.3%; in the experiment with Mythimna separata [9] it was 6.3%. Further, the mortality at 0.03125 µg/mL with Mythimna separata [12] is 0%.

Regarding `CCC(C)[C@H]1O[C@]2(CC[C@@H]1C)C[C@@H]1C[C@@H](C/C=C(\C)[C@@H](O[C@H]3C[C@H](OC)[C@@H](OC(=O)Cc4ccccc4)[C@H](C)O3)[C@@H](C)/C=C/C=C3\CO[C@@H]4[C@H](O)C(C)=C[C@@H](C(=O)O1)[C@]34O)O2` (stereo partly drawn), the mortality at 0.25 µg/mL with Aphis fabae [1] was determined as 65.8%; in the experiment on Mythimna separata [14], 60.3%. The mortality at 1 µg/mL in the experiment with Aphis fabae [2] and in the experiment on Mythimna separata [11] was 100% each time. In addition, the mortality at 0.006 µg/mL in the experiment on Tetranychus cinnabarinus worked out at 14.3%. In addition, the mortality at 0.5 µg/mL in the experiment with Mythimna separata [3] was found to be 90.2%; in the experiment with Aphis fabae [4], 86.7%. This compound showed an LC90 in the experiment with Aphis fabae [5] of 0.742 µg/mL (≈ 0.874 µM). Also, the LC50 in the experiment with Aphis fabae [5] (Aphis fabae, 48 h) amounted to 0.07 µg/mL (≈ 0.0824 µM); with Mythimna separata [10], 0.204 µg/mL (≈ 0.24 µM). The mortality at 0.0625 µg/mL was 3.3% in the experiment on Aphis fabae [7] and 10.1% with Mythimna separata [13]. Also, the values for the mortality at 0.125 µg/mL in the experiment on Aphis fabae [8] and in the experiment on Mythimna separata [9] were 31.2% and 20.5%, respectively. For the same compound, the mortality at 0.03125 µg/mL with Mythimna separata [12] and in the experiment with Aphis fabae [15] was 0% each time.

Turning to `CCC(C)[C@H]1O[C@]2(CC[C@@H]1C)C[C@@H]1C[C@@H](C/C=C(\C)[C@@H](OC(=O)C(C)(C)CC)[C@@H](C)/C=C/C=C3\CO[C@@H]4[C@H](O)C(C)=C[C@@H](C(=O)O1)[C@]34O)O2` (stereo partly drawn), the results for the mortality at 0.25 µg/mL in the experiment on Aphis fabae [1] and in the experiment with Mythimna separata [14] were 57.6% and 60%, respectively. Besides, the mortality at 1 µg/mL is 85.4% in the experiment with Aphis fabae [2] and 96.9% with Mythimna separata [11]. In the experiment on Tetranychus cinnabarinus, the mortality at 0.006 µg/mL was determined as 60.7%. Further, the mortality at 0.5 µg/mL came out at 75.2% in the experiment on Mythimna separata [3] and 68.2% with Aphis fabae [4]. Moreover, the median lethal concentration (LC50) in the experiment with Aphis fabae [5] (Aphis fabae, 48 h) came to 0.15 µg/mL (≈ 0.219 µM); with Mythimna separata [10], 0.25 µg/mL (≈ 0.365 µM). In the experiment on Aphis fabae [6], the mortality at 2 µg/mL amounted to 92.9%. Further, the mortality at 0.0625 µg/mL was 38% with Aphis fabae [7] and 0% in the experiment on Mythimna separata [13]. For the same compound, the mortality at 0.125 µg/mL in the experiment on Aphis fabae [8] was found to be 45.5%; with Mythimna separata [9] it was 16.7%. Besides, the mortality at 10 µg/mL in the experiment with Aphis fabae [16] and with Mythimna separata [17] was 100% each time. Besides, the mortality at 0.03125 µg/mL with Mythimna separata [12] stood at 0%.

These data come from ChEMBL document CHEMBL3046616, “Design, synthesis, and biological activities of milbemycin analogues” (2011).
